Experimental data reported in PubChem BioAssay (NCI).
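The compound was tested at five concentrations on cells cultured in 96-well plates, with a 48-hour exposure period. TGI: total growth inhibition.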

Columns and labels:
Assay in all cases: growth of human tumour cells (NCI), 48 h
BT-549 breast = system: BT-549 breast
HT29 colon = system: HT29 colon
MDA-N = system: MDA-N
LOX IMVI melanoma = system: LOX IMVI melanoma
ACHN renal = system: ACHN renal
SK-MEL-28 melanoma = system: SK-MEL-28 melanoma
SN12C renal = system: SN12C renal
HL-60(TB) leukemia = system: HL-60(TB) leukemia
OVCAR-8 ovarian = system: OVCAR-8 ovarian
SNB-75 CNS = system: SNB-75 CNS
HS 578T breast = system: HS 578T breast
TK-10 renal = system: TK-10 renal
HCC-2998 colon = system: HCC-2998 colon
HOP-62 NSCLC = system: HOP-62 NSCLC
SW-620 colon = system: SW-620 colon
MALME-3M melanoma = system: MALME-3M melanoma
OVCAR-5 ovarian = system: OVCAR-5 ovarian
MCF7 breast = system: MCF7 breast
U251 CNS = system: U251 CNS
SK-OV-3 ovarian = system: SK-OV-3 ovarian
UO-31 renal = system: UO-31 renal
HCT-116 colon = system: HCT-116 colon
COLO 205 colon = system: COLO 205 colon
PC-3 prostate = system: PC-3 prostate
MDA-MB-231 breast = system: MDA-MB-231 breast
CAKI-1 renal = system: CAKI-1 renal
OVCAR-3 ovarian = system: OVCAR-3 ovarian
A549 NSCLC = system: A549 NSCLC
M14 melanoma = system: M14 melanoma
UACC-62 melanoma = system: UACC-62 melanoma
SF-268 CNS = system: SF-268 CNS
OVCAR-4 ovarian = system: OVCAR-4 ovarian
HOP-92 NSCLC = system: HOP-92 NSCLC
SNB-19 CNS = system: SNB-19 CNS
HCT-15 colon = system: HCT-15 colon
KM12 colon = system: KM12 colon
SK-MEL-5 melanoma = system: SK-MEL-5 melanoma
SF-295 CNS = system: SF-295 CNS
SK-MEL-2 melanoma = system: SK-MEL-2 melanoma
NCI/ADR-RES ovarian = system: NCI/ADR-RES ovarian
RXF 393 renal = system: RXF 393 renal
T-47D breast = system: T-47D breast
SF-539 CNS = system: SF-539 CNS
CCRF-CEM leukemia = system: CCRF-CEM leukemia
NCI-H522 lung = system: NCI-H522 lung
MDA-MB-435 = system: MDA-MB-435
NCI-H460 lung = system: NCI-H460 lung
EKVX NSCLC = system: EKVX NSCLC
NCI-H23 lung = system: NCI-H23 lung
786-0 renal = system: 786-0 renal
K-562 leukemia = system: K-562 leukemia
DU-145 prostate = system: DU-145 prostate
UACC-257 melanoma = system: UACC-257 melanoma
A498 renal = system: A498 renal
MOLT-4 leukemia = system: MOLT-4 leukemia
IGROV1 ovarian = system: IGROV1 ovarian
NCI-H226 lung = system: NCI-H226 lung

**Q.** What does the source list for `O=C(C1OC1c1ccc(F)cc1)C12CC3CC(CC(C3)C1)C2` (configuration not stated)?
**A.** TGI (BT-549 breast): 67.3 µM; TGI (HT29 colon): 45.4 µM; TGI (MDA-N): 32.5 µM; TGI (LOX IMVI melanoma): 12.3 µM; TGI (ACHN renal): 85 µM; TGI (SK-MEL-28 melanoma): 59 µM; TGI (SN12C renal): 44.4 µM; TGI (HL-60(TB) leukemia): 31.1 µM; TGI (OVCAR-8 ovarian): 29 µM; TGI (SNB-75 CNS): > 100 µM; TGI (HS 578T breast): 60.1 µM; TGI (TK-10 renal): > 100 µM; TGI (HCC-2998 colon): 36.8 µM; TGI (HOP-62 NSCLC): 70.8 µM; TGI (SW-620 colon): 44.2 µM; TGI (MALME-3M melanoma): 78.6 µM; TGI (OVCAR-5 ovarian): 54.7 µM; TGI (MCF7 breast): 95.4 µM; TGI (U251 CNS): 24.5 µM; TGI (SK-OV-3 ovarian): 70.3 µM; TGI (UO-31 renal): 51.5 µM; TGI (HCT-116 colon): 20.1 µM; TGI (COLO 205 colon): 30.9 µM; TGI (PC-3 prostate): > 100 µM; TGI (MDA-MB-231 breast): 52.8 µM; TGI (CAKI-1 renal): 57 µM; TGI (OVCAR-3 ovarian): 33.5 µM; TGI (A549 NSCLC): 59.7 µM; TGI (M14 melanoma): 31.4 µM; TGI (UACC-62 melanoma): 38.7 µM; TGI (SF-268 CNS): 61.2 µM; TGI (OVCAR-4 ovarian): 40.2 µM; TGI (HOP-92 NSCLC): 52.7 µM; TGI (SNB-19 CNS): > 100 µM; TGI (HCT-15 colon): 56.7 µM; TGI (KM12 colon): 46.8 µM; TGI (SK-MEL-5 melanoma): 30.7 µM; TGI (SF-295 CNS): 79.1 µM; TGI (SK-MEL-2 melanoma): 30.6 µM; TGI (NCI/ADR-RES ovarian): 48.1 µM; TGI (RXF 393 renal): 32.7 µM; TGI (T-47D breast): > 100 µM; TGI (SF-539 CNS): 45.7 µM; TGI (CCRF-CEM leukemia): 37 µM; TGI (NCI-H522 lung): 38.2 µM; TGI (MDA-MB-435): 26.2 µM; TGI (NCI-H460 lung): 31.1 µM; TGI (EKVX NSCLC): 45.1 µM; TGI (NCI-H23 lung): 43.4 µM; TGI (786-0 renal): 36.5 µM; TGI (K-562 leukemia): 37.2 µM; TGI (DU-145 prostate): > 100 µM; TGI (UACC-257 melanoma): 86.6 µM; TGI (A498 renal): 58 µM; TGI (MOLT-4 leukemia): 35.3 µM; TGI (IGROV1 ovarian): 59.8 µM; TGI (NCI-H226 lung): 46.6 µM
